According to US8741892B2, “Compounds” (Boehringer Ingelheim International GmbH, priority 2011, dated 2014):
pEC50: −log10 of the molar value.

Molecular target: T1, human recombinant mGluR5 (Homo sapiens, UniProt P41594)
T1 construct: expressed in transfected cells; host or cells: HEK 293
Assay: positive modulation of mGluR5, calcium based FLIPR assay
Conditions: HEK 293 cell line expressing human recombinant mGluR5; EC50 of the modulation from peak Ca fluorescence signal after glutamate at approx. 5% basal stimulation
Procedure, shortened: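 HEK 293 cells expressing human recombinant mGluR5, Calcium-4 dye-loaded in Ringer solution pH 7.4. Compound (1% DMSO final) preincubated 5 min, then glutamate at ~5% of maximal effect added; peak Ca2+ fluorescence gives EC50 by nonlinear regression, normalized to DMSO (100%) and 10 μM CDPPB (200%) controls.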

T1 sequence (P41594 21-1212): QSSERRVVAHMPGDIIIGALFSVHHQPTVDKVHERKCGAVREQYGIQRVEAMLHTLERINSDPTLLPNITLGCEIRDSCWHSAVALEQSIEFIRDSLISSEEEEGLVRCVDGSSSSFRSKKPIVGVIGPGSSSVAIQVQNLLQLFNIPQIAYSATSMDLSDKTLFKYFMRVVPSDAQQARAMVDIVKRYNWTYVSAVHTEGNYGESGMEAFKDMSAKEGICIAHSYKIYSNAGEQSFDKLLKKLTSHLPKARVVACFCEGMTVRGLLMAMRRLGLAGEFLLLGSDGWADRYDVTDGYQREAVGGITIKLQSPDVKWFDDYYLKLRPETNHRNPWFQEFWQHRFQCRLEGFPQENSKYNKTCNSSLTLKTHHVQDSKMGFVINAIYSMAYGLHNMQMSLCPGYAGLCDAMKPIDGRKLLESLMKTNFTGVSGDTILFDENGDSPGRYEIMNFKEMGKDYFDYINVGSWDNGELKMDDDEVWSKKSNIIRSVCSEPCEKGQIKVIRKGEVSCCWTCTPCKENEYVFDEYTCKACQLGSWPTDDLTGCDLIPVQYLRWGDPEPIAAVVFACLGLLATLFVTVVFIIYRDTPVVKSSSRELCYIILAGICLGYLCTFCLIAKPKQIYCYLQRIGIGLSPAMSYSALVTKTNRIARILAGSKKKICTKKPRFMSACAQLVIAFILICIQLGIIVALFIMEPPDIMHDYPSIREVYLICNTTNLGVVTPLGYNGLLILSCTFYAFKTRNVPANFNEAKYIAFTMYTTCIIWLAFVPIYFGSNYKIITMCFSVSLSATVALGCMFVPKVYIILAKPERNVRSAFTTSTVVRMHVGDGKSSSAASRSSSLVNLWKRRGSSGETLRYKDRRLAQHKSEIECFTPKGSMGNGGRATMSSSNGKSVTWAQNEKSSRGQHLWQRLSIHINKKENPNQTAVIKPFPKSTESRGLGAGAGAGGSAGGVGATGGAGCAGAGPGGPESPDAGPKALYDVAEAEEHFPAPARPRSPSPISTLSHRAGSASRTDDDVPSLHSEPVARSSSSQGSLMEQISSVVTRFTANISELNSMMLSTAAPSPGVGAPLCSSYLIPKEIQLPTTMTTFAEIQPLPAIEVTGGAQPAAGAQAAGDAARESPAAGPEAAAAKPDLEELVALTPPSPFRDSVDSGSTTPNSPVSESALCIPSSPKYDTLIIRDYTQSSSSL

Row | Compound | pEC50
1 | N#Cc1cccc(-c2cc(-c3ccccc3)n(CC(=O)N3CCc4nc(N)sc4CC3)n2)c1 [Example 7.02.190] | 7.54
2 | Cc1nc2c(s1)CN(C(=O)Cn1nc(-c3cccc(C#N)c3)cc1-c1ccccc1)C2 [Example 7.02.191] | 7.10
3 | Cc1nnc(N2CCN(C(=O)Cn3nc(-c4cccc(C#N)c4)cc3-c3ccccc3)CC2)o1 [Example 7.02.192] | 7.09
4 | Cc1nnc(C2CCN(C(=O)Cn3nc(-c4cccc(C#N)c4)cc3-c3ccccc3)CC2)o1 [Example 7.02.193] | 6.54
5 | Cc1cnc(C2CCN(C(=O)Cn3nc(-c4cccc(C#N)c4)cc3-c3ccccc3)CC2)o1 [Example 7.02.194] | 7.20
6 | Cc1nc(N2CCN(C(=O)Cn3nc(-c4ccc(F)c(C)c4)cc3-c3ccccc3)CC2)no1 [Example 7.02.195] | 8.70
7 | CCc1cc(-c2ccc(F)c(C)c2)nn1CC(=O)N1CCN(c2noc(C)n2)CC1 [Example 7.02.196] | 7.37
8 | Cc1cccc(-c2cc(-c3ccccc3)n(CC(=O)N3CCC(c4nnc(C)o4)CC3)n2)c1 [Example 7.02.197] | 7.05
9 | Cc1cccc(-c2cc(-c3ccccc3)n(CC(=O)N3CCc4nc(C)sc4CC3)n2)c1 [Example 7.02.198] | 8.22
10 | Cc1cccc(-c2cc(-c3ccccc3)n(CC(=O)N3CCc4nc(N)sc4CC3)n2)c1 [Example 7.02.199] | 7.80
11 | Cc1cccc(-c2cc(-c3ccccc3)n(CC(=O)N3Cc4nc(C)sc4C3)n2)c1 [Example 7.02.200] | 7.62
12 | COc1cc(C2CCN(C(=O)Cn3nc(-c4cccc(C)c4)cc3-c3ccccc3)CC2)ncn1 [Example 7.02.201] | 6.77
13 | COc1cc(C2=CCN(C(=O)Cn3nc(-c4cccc(C)c4)cc3-c3ccccc3)CC2)ncn1 [Example 7.02.202] | 7.72
14 | COc1cnc(C2CCN(C(=O)Cn3nc(-c4cccc(C)c4)cc3-c3ccccc3)CC2)nc1 [Example 7.02.203] | 6.75
15 | COc1cnc(C2=CCN(C(=O)Cn3nc(-c4cccc(C)c4)cc3-c3ccccc3)CC2)nc1 [Example 7.02.204] | 7.33
16 | CCc1cc(-c2ccc(F)c(C)c2)nn1CC(=O)N1CC=C(c2ncc(C)o2)CC1 [Example 7.02.205] | 7.74
17 | CCCc1cc(-c2ccc(F)c(C)c2)nn1CC(=O)N1CC=C(c2ncc(C)o2)CC1 [Example 7.02.206] | 8.22
18 | CCc1cc(-c2ccc(F)c(C)c2)nn1CC(=O)N1CCC(c2ncc(C)o2)CC1 [Example 7.02.207] | 7.15
19 | CCCc1cc(-c2ccc(F)c(C)c2)nn1CC(=O)N1CCC(c2ncc(C)o2)CC1 [Example 7.02.208] | 7.44
20 | CCCc1cc(-c2ccc(F)c(C)c2)nn1CC(=O)N1CCN(c2nnc(C)o2)CC1 [Example 7.02.209] | 7.21
21 | CCCc1cc(-c2ccc(F)c(C)c2)nn1CC(=O)N1CCC(c2nnc(C)o2)CC1 [Example 7.02.210] | 6.84
22 | CCCc1cc(-c2ccc(F)c(C)c2)nn1CC(=O)N1CCN(c2noc(C)n2)CC1 [Example 7.02.211] | 7.89
23 | Cc1nc2c(o1)CN(C(=O)Cn1nc(-c3ccc(F)c(C)c3)cc1-c1ccccc1)C2 [Example 7.02.212] | 8.52
24 | CCc1cc(-c2ccc(F)c(C)c2)nn1CC(=O)N1Cc2nc(C)oc2C1 [Example 7.02.213] | 7.59
25 | CCCc1cc(-c2ccc(F)c(C)c2)nn1CC(=O)N1Cc2nc(C)oc2C1 [Example 7.02.214] | 7.96
26 | CCCc1cc(-c2ccc(F)c(C)c2)nn1CC(=O)N1CCc2nc(C)oc2CC1 [Example 7.02.215] | 8.05
27 | Cc1cc(-c2cc(-c3ccccc3)n(CC(=O)N3CCN(c4nccs4)CC3)n2)ccc1F [Example 7.02.216] | 8.22

Row | Compound | pEC50
28 | CCc1cc(-c2ccc(F)c(C)c2)nn1CC(=O)N1CCN(c2nccs2)CC1 [Example 7.02.217] | 7.25
29 | CCc1nnc(C2CCN(C(=O)Cn3nc(-c4ccc(F)c(C)c4)cc3-c3ccccc3)CC2)o1 [Example 7.02.218] | 7.27
30 | CCc1nnc(C2CCN(C(=O)Cn3nc(-c4ccc(F)c(C)c4)cc3CC)CC2)o1 [Example 7.02.219] | 6.68
31 | CCc1cc(-c2ccc(F)c(C)c2)nn1CC(=O)N1CCN(c2nnc(C)o2)CC1 [Example 7.02.220] | 6.54
32 | Cc1nc2c(s1)CCN(C(=O)Cn1nc(-c3ccc(OC(F)F)cc3)cc1-c1ccccc1)CC2 [Example 7.02.221] | 8.40
33 | Cc1nc2c(s1)CN(C(=O)Cn1nc(-c3ccc(OC(F)F)cc3)cc1-c1ccccc1)C2 [Example 7.02.222] | 7.64
34 | Cc1nc2c(o1)CN(C(=O)Cn1nc(-c3ccc(OC(F)F)cc3)cc1-c1ccccc1)C2 [Example 7.02.223] | 7.89
35 | Cc1nc(N2CCN(C(=O)Cn3nc(-c4ccc(OC(F)F)cc4)cc3-c3ccccc3)CC2)no1 [Example 7.02.224] | 8.70
36 | Cc1nnc(N2CCN(C(=O)Cn3nc(-c4ccc(OC(F)F)cc4)cc3-c3ccccc3)CC2)o1 [Example 7.02.225] | 7.77
37 | Cc1cnc(N2CCN(C(=O)Cn3nc(-c4ccc(OC(F)F)cc4)cc3-c3ccccc3)CC2)o1 [Example 7.02.226] | 7.96
38 | COCc1nnc(C2CCN(C(=O)Cn3nc(-c4ccc(F)c(C)c4)cc3-c3ccccc3)CC2)o1 [Example 7.02.227] | 7.46
39 | CCc1cc(-c2ccc(F)c(C)c2)nn1CC(=O)N1CCC(c2nnc(COC)o2)CC1 [Example 7.02.228] | 6.40
40 | Cc1cc(-c2cc(-c3ccccc3)n(CC(=O)N3Cc4cccnc4C3)n2)ccc1F [Example 7.02.229] | 7.51
41 | CCc1cc(-c2ccc(F)c(C)c2)nn1CC(=O)N1Cc2cccnc2C1 [Example 7.02.230] | 6.06
42 | Cc1nc2n(n1)CCN(C(=O)Cn1nc(-c3ccc(F)c(C)c3)cc1-c1ccccc1)CC2 [Example 7.02.231] | 7.72
43 | COc1ccc(-c2cc(-c3ccccc3)n(CC(=O)N3CCN(c4noc(C)n4)CC3)n2)cc1C [Example 7.02.232] | 6.98
44 | COc1ccc(-c2cc(-c3ccccc3)n(CC(=O)N3Cc4nc(C)sc4C3)n2)cc1C [Example 7.02.233] | 6.55
45 | Cc1nnc(N2CCN(C(=O)Cn3nc(-c4ccc(OC(F)F)cn4)cc3-c3ccccc3)CC2)o1 [Example 7.02.234] | 6.70
46 | Cc1nc(N2CCN(C(=O)Cn3nc(-c4ccc(OC(F)F)cn4)cc3-c3ccccc3)CC2)no1 [Example 7.02.235] | 7.52
47 | Cc1nc2c(s1)CCN(C(=O)Cn1nc(-c3ccc(OC(F)F)cn3)cc1-c1ccccc1)CC2 [Example 7.02.236] | 7.16
48 | Cc1nc2c(s1)CN(C(=O)Cn1nc(-c3ccc(OC(F)F)cn3)cc1-c1ccccc1)C2 [Example 7.02.237] | 6.95
49 | CCc1cc(-c2ccc(C)c(F)c2)nn1CC(=O)N1CCc2nc(C)sc2CC1 [Example 7.02.238] | 6.84
50 | CCc1cc(-c2ccc(C)c(F)c2)nn1CC(=O)N1Cc2nc(C)sc2C1 [Example 7.02.239] | 6.07
51 | COc1ccc(-c2cc(-c3ccccc3)n(CC(=O)N3CCc4nc(C)sc4CC3)n2)cc1C [Example 7.02.240] | 7.07
52 | COc1ccc(-c2cc(-c3ccccc3)n(CC(=O)N3CCc4nc(C)sc4CC3)n2)cc1C [Example 7.02.241] | 7.12
53 | Cc1cc(-c2cc(-c3ccccc3)n(CC(=O)N3CCN(C(=O)Oc4ccccc4)CC3)n2)ccc1F [Example 7.02.242] | 7.35
54 | Cc1nc2c(o1)CN(C(=O)Cn1nc(-c3ccc(OC(F)F)cn3)cc1-c1ccccc1)C2 [Example 7.02.244] | 7.32
